Results taken from article PMC3806161, “Strychnos pseudoquina and Its Purified Compounds Present an Effective In Vitro Antileishmanial Activity” (Evidence-based Complementary and Alternative Medicine : eCAM, 2013).
Where two headings read alike, the source gives them in different places.

Key:
[1] = tested on: stationary-phase promastigotes of L. amazonensis; experiment: Antileishmanial activity: inhibition of promastigote viability (MTT); type: cell-based, Leishmania amazonensis
Procedure: Cell viability was assessed by measuring the cleavage of 2 mg/mL of MTT [3-(4.5-dimethylthiazol-2-yl)-2.5-diphenyl tetrazolium bromide] (Sigma). Absorbances were measured by using a multiwell scanning spectrophotometer (LABTRADE, model 660) at a wavelength of 570 nm. Amphotericin B (1 μM) was used as a positive control. The concentration of the products needed to inhibit 50% of the Leishmania viability (IC50) was determined by applying the sigmoidal regression of the concentration-response curves, using different concentrations of the compounds.

murine macrophages [2] = tested on: murine macrophages
Procedure: (§1) Cell viability was assessed by the MTT assay, and amphotericin B was used as a control. The selectivity index (SI) of the products was calculated by determining the ratio between IC50 and CC50. The hemolytic activity was investigated by incubating the products, in the same concentrations used for cytotoxicity evaluation, with a 5% red blood cell (human O^+) suspension for 1 h at 37°C. Briefly, the erythrocyte suspension was centrifuged (1000 ×g for 10 min), and cell lysis was determined spectrophotometrically (570 nm), as described [24]. The absence of (blank) or 100% presence of hemolysis (positive control) was determined by replacing the products for an equal volume of PBS or distilled water, respectively. The results were determined by the percentage of hemolysis when compared with the negative and positive controls. Data shown are representative of four independent experiments, performed in triplicate, which presented similar results.

murine macrophages [3] = experiment: Cytotoxicity assay on macrophages (MTT); details: for SI, Selectivity Index (ratio between CC50 and IC50): murine macrophages vs L. amazonensis promastigotes
Procedure: as §1

O+ human red blood cells = experiment: Hemolytic activity; type: cell-based
Procedure: as §1

[4] = tested on: Leishmania amazonensis invasion of murine macrophages; experiment: Inhibition of infection in phagocytic cells (pre-treated promastigotes); type: cell-based; details: for reductions in infectivity of parasites after treatment: parasites preincubated 4 h at 24°C, versus about 87% infected macrophages with untreated parasites, concentration not given; for number of amastigotes per cell / Percentage of infected macrophages after treatment: 4 h at 24°C; for number of amastigotes per cell: untreated 8.4; for Percentage of infected macrophages after treatment: untreated 87.0
Procedure: The inhibitory effect of quercetin 3-O-methyl ether and strychnobiflavone on the Leishmania invasion of macrophages was evaluated using promastigotes of L. amazonensis. Parasites (1 × 10^6 cells) were preincubated with different concentrations of quercetin 3-O-methyl ether (0, 70, 140, or 280 μM) or strychnobiflavone (0, 40, 80, or 160 μM) for 4 h at 24°C. […] After incubation, parasites were washed three times with RPMI 1640 medium, quantified, and incubated for 24 h with murine macrophages, using a ratio of 10 parasites per 1 macrophage. After, cells were washed, set, and stained to determine the percentage of infected macrophages by counting 200 cells in triplicate.

[5] = tested on: L. amazonensis in infected murine macrophages; experiment: Treatment of infected macrophages; type: cell-based, Leishmania amazonensis; details: for number of amastigotes per cell: untreated 8.4; for Percentage of infected macrophages after treatment: untreated 87.0
Procedure: Murine macrophages (5 × 10^5 cells) were plated on round glass coverslips inside the wells of a 24-well culture plate (Nunc) in an RPMI 1640 medium supplemented with 20% FBS, 2 mM L-glutamine, 200 U/mL penicillin, and 100 μg/mL streptomycin, at pH 7.4. After 24 h of incubation at 37°C in 5% CO2, stationary-phase promastigotes of L. amazonensis were added to the wells (5 × 10^6 cells), and the cultures were incubated for 24 h at 37°C in 5% CO2. A previous titration curve was performed to determine the minimum time incubation of parasites with the macrophages, in order to obtain the maximum of infection into the host cells (data not shown). Next, free parasites were removed by extensive washing with an RPMI 1640 medium, and infected macrophages were quantified and treated for 48 h with quercetin 3-O-methyl ether (0, 70, 140, or 280 μM) or strychnobiflavone (0, 40, 80 or 160 μM) for 48 h at […] in 5% CO2. Cells were washed in RPMI 1640 and incubated with 4% paraformaldehyde for 15 min, at which time they were treated with 70% ethanol in an ice bath for 4 h and again washed three times with sterile PBS. Amphotericin B was used as a control. The percentage of the inhibition of Leishmania intra-macrophage viability was determined by counting 200 cells in triplicate.

[6] = Cytotoxicity assay on macrophages (MTT); details: BALB/c, mouse, murine macrophages
Procedure: as §1

[7] = Leishmania amazonensis, 48 h, stationary-phase promastigotes, 48 h at 24°C, MTT, read-out: IC50 (inhibitory concentration of 50% of promastigotes of L. amazonensis)
[8] = promastigotes pre-treated with 70 μM
[9] = promastigotes pre-treated with 140 μM
[10] = promastigotes pre-treated with 280 μM
[11] = infected macrophages treated with 70 μM for 48 h
[12] = infected macrophages treated with 140 μM for 48 h
[13] = infected macrophages treated with 280 μM for 48 h
[14] = promastigotes pre-treated with 40 μM
[15] = promastigotes pre-treated with 80 μM
[16] = promastigotes pre-treated with 160 μM
[17] = infected macrophages treated with 40 μM for 48 h
[18] = infected macrophages treated with 80 μM for 48 h
[19] = infected macrophages treated with 160 μM for 48 h

Compound: C[C@@H]1[C@H](O)[C@@H](C)/C=C/C=C/C=C/C=C/C=C/C=C/C=C/[C@H](O[C@@H]2O[C@H](C)[C@@H](O)[C@H](N)[C@@H]2O)C[C@@H]2O[C@](O)(C[C@@H](O)C[C@@H](O)[C@H](O)CC[C@@H](O)C[C@@H](O)CC(=O)O[C@H]1C)C[C@H](O)[C@H]2C(=O)O [AmpB, amphotericin B, reference compound]
- IC50 [1, 7]: 0.1 ± 0.13 µM
- toxicity in murine macrophages (in words) (murine macrophages [2]): highly cytotoxic
- SI, Selectivity Index (ratio between CC50 and IC50) (murine macrophages [3]): 9.9

Compound: COc1c(-c2ccc(O)c(O)c2)oc2cc(O)cc(O)c2c1=O [Quercetin 3-O-methyl ether, quercetin 3-O-methyl ether]
- IC50 [1, 7]: 8.08 µM
- IC50 ([1]; stationary-phase promastigotes, 48 h at 24°C, MTT, listed as Quercetin 3-methyl ether, read-out: IC50 (inhibitory concentration of 50% of promastigotes of L. amazonensis)): 8.1 ± 1.5 µM
- hemolytic activity / damage to human erythrocytes (in words) (O+ human red blood cells): no significant damage
- RBC50 (50% of human red blood cell lysis) (O+ human red blood cells; human, 1 h): 155.0 ± 33.2 µM
- reductions in infectivity of parasites after treatment [4]: ~47%
- number of amastigotes per cell [4, 8]: 4.5
- Percentage of infected macrophages after treatment [4, 8]: 67.8%
- number of amastigotes per cell [4, 9]: 3.9
- Percentage of infected macrophages after treatment [4, 9]: 61.9%
- number of amastigotes per cell [4, 10]: 2.4
- Percentage of infected macrophages after treatment [4, 10]: 46.1%
- number of amastigotes per cell [5, 11]: 5.6
- Percentage of infected macrophages after treatment [5, 11]: 72.4%
- number of amastigotes per cell [5, 12]: 4.4
- Percentage of infected macrophages after treatment [5, 12]: 68.0%
- number of amastigotes per cell [5, 13]: 1.7
- Percentage of infected macrophages after treatment [5, 13]: 46.3%
- toxicity in murine macrophages (in words) (murine macrophages [2]): no significant toxicity
- SI, Selectivity Index (ratio between CC50 and IC50) (murine macrophages [3]): 24.62
- SI, Selectivity Index (ratio between CC50 and IC50) (murine macrophages [3]; listed as Quercetin 3-methyl ether): 24.6

Compound: COc1c(-c2ccc(O)c(O)c2-c2c(O)cc(O)c3c(=O)c(OC)c(-c4ccc(O)c(O)c4)oc23)oc2cc(O)cc(O)c2c1=O [Strychnobiflavone, strychnobiflavone]
- IC50 ([1]; Leishmania amazonensis, 48 h, read-out: IC50 (inhibitory concentration of 50% of promastigotes of L. amazonensis), stationary-phase promastigotes, 48 h at 24°C, MTT): 3.16 µM
- IC50 ([1]; stationary-phase promastigotes, 48 h at 24°C, MTT, read-out: IC50 (inhibitory concentration of 50% of promastigotes of L. amazonensis)): 3.2 ± 0.2 µM
- RBC50 (50% of human red blood cell lysis) (O+ human red blood cells; 5% human O+ red blood cell suspension, 1 h at 37°C): 209.6 ± 2.5 µM
- hemolytic activity / damage to human erythrocytes (in words) (O+ human red blood cells; O+ human red blood cells): no significant damage
- reductions in infectivity of parasites after treatment [4]: ~72.6%
- number of amastigotes per cell [4, 14]: 3.0
- Percentage of infected macrophages after treatment [4, 14]: 53.0%
- number of amastigotes per cell [4, 15]: 2.2
- Percentage of infected macrophages after treatment [4, 15]: 47.8%
- number of amastigotes per cell [4, 16]: 1.2
- Percentage of infected macrophages after treatment [4, 16]: 23.8%
- number of amastigotes per cell [5, 17]: 1.5
- Percentage of infected macrophages after treatment [5, 17]: 37.9%
- number of amastigotes per cell [5, 18]: 1.3
- Percentage of infected macrophages after treatment [5, 18]: 26.3%
- number of amastigotes per cell [5, 19]: 0.4
- Percentage of infected macrophages after treatment [5, 19]: 9.6%
- CC50 at 48 h [6]: 125 ± 4.5 µM
- toxicity in murine macrophages (in words) (murine macrophages [3]; in vitro, after incubation with the products): no significant toxicity
- SI, Selectivity Index (ratio between CC50 and IC50) (murine macrophages [3]): 39.6
- SI, Selectivity Index (ratio between CC50 and IC50) (murine macrophages [3]; listed as strychnobiflavone): 39.55
